This note sets out measurements from patent US7528226B2, “TGFβ1-inhibitor peptides” (Rojecto de Biomedicina Cima S.L., priority 1998, dated 2009).

No end group written: not given here.

The assay deals with T1, TGFβ1 (Homo sapiens, UniProt P01137).
T1 construct: the mature TGFβ1 is released by another cut; purchased R&D Systems Europe Ltd., Abingdon, UK
Format: cell-based. The following applies: TGFβ1 200 pg/ml. On the procedure:
A line derived from mink pulmonary epithelium, MV-1-Lu, was used (CCL-64, American Type Cell Culture, Virginia, USA). The cells were grown in 162 cm^2 culture flasks (Costar Corporation, Cambridge, USA) in a stove at 37° C. and 5% CO2, until subconfluence was attained. A complete medium was used: RPMI 1640 with L-glutamine (GibcoBRL, Life Technologies Ltd., Paisley, Scotland) supplemented with 5% of foetal calf serum (FCS, Biological Industries, Kibbutz Beit Haemek, Israel), 10 mM HEPES (1M HEPES Buffer, Bio-Whittaker, Verviers, Belgium) and antibiotics (100 U/ml penicillin and 100 μ/ml streptomycin).
The MV-1-Lu cells grown as indicated above were removed from the bottom of the culture flasks using 5 ml of trypsin-EDTA (Biological Industries, Kibbutz Beit Haemek, Israel), resuspended in complete medium and centrifuged at 1500 rev/min for 8 minutes. After centrifugation the cells were resuspended in complete medium to a concentration of 50,000 cells/ml. For conducting the test, 10 ml of the cell suspension were taken and dispensed in 96-well, flat-bottom culture plates (Costar Corporation, Cambridge, USA), adding 100 μl/well, and were incubated overnight at 37° C. and 5% CO2, which permits adhesion of the cells to the bottom of the wells. […] The final concentration of FCS in the well was 2.5%. After 24 hours of incubation, 1 μCi of tritiated thymidine was added per well (25 Ci/mmol [methyl-^3H]-thymidine, Amersham Life Science, Buckinghamshire, UK) with incubation for a further 12 hours (Grubeck-Loebenstein B. et al. (1989) J. Clin. Invest. 83:764-770; Brennan F M et al. (1990) Clin. Exp. Immunol. 81:278-285).
At the end of the incubation periods the cells were removed from the bottom of the wells with trypsin-EDTA and were collected using a manual harvester (Titertek cell harvester, Skatron Instruments Inc., Sterling, USA) which ruptures the cells, collecting the DNA in nitrocellulose filters (Filter MAT 11731, Skatron Instruments Inc., Sterling, USA) where it is fixed. The filters were placed individually in 5 ml polypropylene tubes to which 4 ml of scintillation fluid was added (Biogreen-11, Reactivos Scharlau S. A., Barcelona, Spain). The activity of each tube was quantified for 90 seconds in a β LKB scintillation counter (Beta plate system, LKB, Uppsala, Sweden).
TGFβ1 is a cytokine that is able to inhibit the growth in vitro of the MV-1-Lu cell line (Grubeck-Loebenstein B. et al. (1989) J. Clin. Invest. 83:764-770; Brennan F M et al. (1990) Clin. Exp. Immunol. 81:278-285), therefore this line was used for testing the blocking effect of peptides on TGFβ1. After different combinations of media, cells and thymidine, we studied the effect of different concentrations of TGFβ1 on incorporation of [methyl-^3H]thymidine by MV-1-Lu cells in culture, for determining the most suitable conditions for the test. […]
The synthetic peptides that are potentially inhibitors of TGFβ1 activity, selected as indicated above in the section: selection of the peptides to be synthesized (both those derived from proteins that bind to TGFβ1 itself) were tested using the MV-1-Lu cell line. The selected peptides are soluble in buffered RPMI medium. The peptides were dissolved in buffered RPMI medium, free from foetal calf serum, and the following was used.
The peptides belonging to the sequence of the receptor, or complementary to the peaks of hydrophilicity of TGFβ1, were incubated for 30 minutes in the presence of this cytokine and were then combined with the cell culture. The peptides derived from the sequence of TGFβ1 were added to the cell culture prior to addition of TGFβ1, since they interact with the receptors of the cell surface. These incubations were effected in 100 μl of the same medium as was used for adding the cells. The active peptides permitted cell growth to a greater or lesser degree depending on its ability to inhibit TGFβ1.

T1 sequence (P01137 279-390): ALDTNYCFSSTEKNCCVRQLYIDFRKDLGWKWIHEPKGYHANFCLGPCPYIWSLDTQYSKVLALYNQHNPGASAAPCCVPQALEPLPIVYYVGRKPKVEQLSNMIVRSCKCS

On to “TSLDASIIWAMMQN [P144, ThrSerLeuAspAlaSerIleIleTrpAlaMetMetGlnAsn]”, for which the “dependence of the inhibitory activity on the peptide concentration” value (dose-response test) was “activity of the peptide decreases with the decrease in the concentration”. The “inhibitory activity of TGFβ1 (in words)” value (peptide 200 μg/ml, MV-1-Lu cells) was “had proved active”.
